Data set [1] can be described thus: UV absorption: molar extinction coefficient at λmax. It counts as physicochemical.
Description: ε=62081 in ethanol l/(mol/cm) at λmax=434 nm, elemental analysis for C24H32N2O2[%]:
The nature of another data set: photostability. The format is physicochemical. The settings on record: read-out: photostability t1/2 (converted).

In turn, `CCCCC(CC)COC(=O)/C(C#N)=C/C=C1\N(C)c2ccccc2C1(C)C` (stereo not drawn) [Example 2] displayed a λmax in data set [1] (in ethanol) of 434 nm. For the same compound, in data set [1] (in ethanol at λmax), the ε was 62081 l/(mol/cm).

Turning to `CN1/C(=C\C=O)C(C)(C)c2ccccc21` [Example 1, 2-(1,3,3-trimethyl-indolin-2-ylene) acetaldehyde], the ε in data set [1] (in ethanol at λmax) was 34520 l/(mol/cm). The half-life in the data set “photostability” was 208 h.

Consider `CN1/C(=C/C(=O)c2ccccc2)C(C)(C)c2ccccc21` [Example 3], for which the λmax in data set [1] (in dioxane) is on record as 377 nm. Also, the ε in data set [1] (in dioxane at λmax) was 29427 l/(mol/cm).

The record behind these values is US6800762B2, “Indolin derivaties as sun protection agents” (Ciba Specialty Chemicals Corporation, priority 1998, dated 2004).
